From US20050130989A1, “N-arylheteroaromatic products compositions containing them and use thereof” (Aventis Pharma S. A., priority 2003, published 2005)
Where a name gives a salt, the structure may show the parent alone.

Legend:
tubulin = target: T1, tubulin (Sus scrofa, UniProt P02550+P02554); experiment: Evaluation of the inhibition of tubulin polymerization (turbidimetry); format: biochemical, pig; conditions: tubulin 10 μm (1 mg/ml), 37° C., turbidity at 350 nm; concentration that inhibits the rate of polymerization by 50%; read-out: Inhibition of tubulin polymerization IC 50 (μm)
T1 construct: Tubulin is purified from pig brain according to published methods; from tissue; host or cells: pig brain
T1 sequence (P02550 whole entry): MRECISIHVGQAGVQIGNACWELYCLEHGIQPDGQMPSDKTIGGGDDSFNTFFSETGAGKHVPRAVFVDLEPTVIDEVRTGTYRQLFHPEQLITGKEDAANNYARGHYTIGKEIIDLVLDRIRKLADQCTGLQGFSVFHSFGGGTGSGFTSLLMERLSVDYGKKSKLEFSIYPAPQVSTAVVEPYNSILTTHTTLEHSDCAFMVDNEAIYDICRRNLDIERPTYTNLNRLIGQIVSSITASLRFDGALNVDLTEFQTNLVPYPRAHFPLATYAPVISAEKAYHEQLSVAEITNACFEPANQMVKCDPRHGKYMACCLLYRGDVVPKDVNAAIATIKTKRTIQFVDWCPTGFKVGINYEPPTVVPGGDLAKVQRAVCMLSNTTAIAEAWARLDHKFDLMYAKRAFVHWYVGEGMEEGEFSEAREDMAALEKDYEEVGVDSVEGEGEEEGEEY
T1 sequence (P02554 whole entry): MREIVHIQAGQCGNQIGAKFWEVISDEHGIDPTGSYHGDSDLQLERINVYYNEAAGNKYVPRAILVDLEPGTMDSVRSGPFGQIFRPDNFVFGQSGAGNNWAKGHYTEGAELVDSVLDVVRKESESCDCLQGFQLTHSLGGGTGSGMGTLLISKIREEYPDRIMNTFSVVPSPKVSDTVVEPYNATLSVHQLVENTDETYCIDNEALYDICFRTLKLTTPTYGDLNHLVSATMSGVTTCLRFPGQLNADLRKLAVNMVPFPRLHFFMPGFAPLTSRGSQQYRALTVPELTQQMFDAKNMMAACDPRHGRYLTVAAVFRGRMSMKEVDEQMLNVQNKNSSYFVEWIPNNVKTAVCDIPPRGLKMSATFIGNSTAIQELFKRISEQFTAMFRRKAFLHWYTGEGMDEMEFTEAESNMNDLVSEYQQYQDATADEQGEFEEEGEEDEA
Method in brief: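 Pig brain tubulin (>95% pure), 10 μm in MES pH 6.8/30% glycerol buffer plus 1 mM GTP and 6 mM MgCl2, with compound at 0.5–10 μm added before polymerization. Polymerization triggered by shift from 6° C to 37° C, followed by turbidity at 350 nm; IC50 is 50% inhibition of polymerization rate.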

HCT116 cells = experiment: Inhibition of proliferation of the human colon tumor line HCT116 ([14C]-thymidine incorporation); format: cell-based; conditions: Homo sapiens, HCT-116, 48 h, 48 hours at 37° C., read-out: Inhibition of HCT116 proliferation IC 50 (μm)
Method in brief: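 HCT116 cells (5000/well) in DMEM with 10% fetal calf serum incubated 48 h at 37° C with [14C]-thymidine (0.1 μCi/well) and compound up to 10 μm (DMSO ≤0.5%). Incorporated radioactivity counted; IC50 is concentration cutting radioactivity by 50% versus untreated control.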

SMILES | IC50 (tubulin) [µM] | IC50 (HCT116 cells) [µM]
Cc1cc(C(=O)N2CCN(c3cccc(C(=O)NCCO)c3)CC2)n(-c2ccccc2)n1 [Example E40, N-(2-Hydroxyethyl)-3-[4-(5-methyl-2-phenyl-2H-pyrazole-3-carbonyl)piperazin-1-yl]benzamide] | 1.6 | 0.119
O=C(c1cccn1-c1ccccc1)N1CCN(c2cccnc2)CC1 [Example E46, (1-Phenyl-1H-pyrrol-2-yl)[4-(pyrid-3-yl)piperazin-1-yl]methanone hydrochloride] | 14.5 | 1.24
Cc1cc(C(=O)N2CCN(c3cccc(Cl)c3)CC2)n(C2CCCCC2)n1 [Example E48, [4-(3-Chlorophenyl)piperazin-1-yl](2-cyclohexyl-5-methyl-2H-pyrazol-3-yl)-methanone] | 3.26 | 0.489
COc1cc(OC)cc(N2CCN(C(=O)c3cccn3-c3ccccc3)CC2)c1 [Example E51, [4-(3,5-Dimethoxyphenyl)piperazin-1-yl](1-phenyl-1H-pyrrol-2-yl)methanone hydrochloride] | 1.3 | 2.3
N#Cc1cccc(-n2nc(C(F)(F)F)cc2C(=O)N2CCN(c3cccc(Cl)c3)CC2)c1 [Example E55, 3-{5-[4-(3-Chlorophenyl)piperazine-1-carbonyl]-3-trifluoromethylpyrazol-1-yl}benzonitrile] | 3.6 | 1.34
COc1cc(OC)cc(N2CCN(C(=O)c3cc(C(F)(F)F)nn3-c3cccc(C#N)c3)CC2)c1 [Example E56, 3-{5-[4-(3,5-Dimethoxyphenyl)piperazine-1-carbonyl]-3-trifluoromethylpyrazol-1-yl}benzonitrile] | 1.1 | 0.145
NC(=O)c1cccc(N2CCN(C(=O)c3cccn3-c3ccccc3)CC2)c1 [Example E57, 3-[4-(1-Phenyl-1H-pyrrole-2-carbonyl)piperazin-1-yl]benzamide] | 2 | 0.0898
O=C(c1cc(OCc2ccccc2)nn1-c1ccccn1)N1CCN(c2cccc(Cl)c2)CC1 [Example E61, (5-Benzyloxy-2-pyrid-2-yl-2H-pyrazol-3-yl)[4-(3-chlorophenyl)piperazin-1-yl]methanone] | 2.3 | 6.09

The next lines start with the values.

IC50 (tubulin) [µM] | IC50 (HCT116 cells) [µM] | SMILES
2.09 | 0.0502 | Cc1cc(C(=O)N2CCN(c3cccc(Cl)c3)CC2)n(-c2ccc(F)cc2F)n1 [Example E42, [4-(3-Chlorophenyl)piperazin-1-yl][2-(2,4-difluorophenyl)-5-methyl-2H-pyrazol-3-yl]methanone]
2.17 | 1.46 | Cc1cc(C(=O)N2CCN(c3cccc(Cl)c3)CC2)n(-c2c(F)c(F)cc(F)c2F)n1 [Example E43, [4-(3-Chlorophenyl)piperazin-1-yl][5-methyl-2-(2,3,5,6-tetrafluorophenyl)-2H-pyrazol-3-yl]methanone]
1.68 | 0.236 | Cc1cc(C(=O)N2CCN(c3cccc(Cl)c3)CC2)n(-c2cc(Cl)ccc2Cl)n1 [Example E44, [4-(3-Chlorophenyl)piperazin-1-yl][2-(2,5-dichlorophenyl)-5-methyl-2H-pyrazol-3-yl]methanone]
0.99 | 0.0105 | Cc1cc(C(=O)N2CCN(c3cccc(Cl)c3)CC2)n(-c2ccccc2C)n1 [Example E45, [4-(3-Chlorophenyl)piperazin-1-yl](5-methyl-2-o-tolyl-2H-pyrazol-3-yl)methanone]
2.1 | 0.104 | Cc1cc(C(=O)N2CCN(c3ccc(Br)c(Cl)c3)CC2)n(-c2ccccc2)n1 [Example E59, [4-(4-Bromo-3-chlorophenyl)piperazin-1-yl](5-methyl-2-phenyl-2H-pyrazol-3-yl)methanone]
1.37 | 0.0117 | O=C(c1cc(CO)nn1-c1ccccc1)N1CCN(c2cccc(Cl)c2)CC1 [Example E60, (5-Hydroxymethyl-2-phenyl-2H-pyrazol-3-yl)[4-(3-chlorophenyl)piperazin-1l-yl]methanone]
